These results are taken from patent US20070270349A1, “Glutathione Derivatives and Their Uses for the Treatment of Viral Diseases” (priority 2003, published 2007).

Data set [1] has as its system uninfected Madin Darby canine kidney cells (MDKC). Put plainly: Toxicity on confluent monolayers of uninfected MDCK cells (morphology, Trypan blue vitality, cell count). The class given is cell-based. The note with it: for toxic effect or change in cell morphology: uninfected MDCK monolayers, concentrations used in the experiments. The protocol:
The toxicity was measured on the basis of microscopic examinations of cellular morphology, of measurement of cellular vitality after staining with Trypan blue and of the cell count. All compounds were diluted in RPMI, the final pH of the solution was approximately 7-7.3.

In data set [2] the test system is erythrocytes (RBCs). Put plainly: Entry into erythrocytes, oil-stop method. The class given is in vitro ADME. The note with it: calculated in the first 30 minutes, 37° C., 10% hematocrit. The protocol:
The entry of GSH and GSH-C4 into erythrocytes (RBCs) at 37° C. in microcentrifugal test-tubes was measured using the oil-stop method. […] A Manual of Biochemical Methods, 3rd edn. Grune & Stratton, New York).

Data set [3] deals with Sendai virus. Briefly: Sendai virus replication in MDCK cells, hemagglutinating activity in supernatant. The class given is cell-based. The note with it: for EC50 / inhibition at 5000 µM: Respirovirus muris; for EC50: 48 h, MDCK cells, read-out: 50% of inhibition of viral reproduction (EC50); for inhibition at 5000 µM: MDCK, 5 mM. The protocol:
To measure the behavior of GSH-C4 derivatives in infected cells, Madin Darby canine kidney cells (MDCK) were grown in RPMI 1640 to which 5% of heat-decomplemented bovine fetal serum (Flow Laboratories, Italy) was added.
(§1) The Senday virus (SV) belonging to the Paramyxovirus family is a virus with non-segmented single stranded RNA of negative polarity. This virus was reproduced by inoculation in the allantoic liquid of embryonated chicken eggs. The monolayers of MDCK cells were infected with SV [3 hemagglutinating units (HAU)×10^5 cells]. After incubation for 1 hour at 37° C. (adsorption period), the unadsorbed viruses were removed, the monolayers were washed and then incubated in a complete medium containing 2% of bovine fetal serum. The production of viruses by infected cells was determined in the cellular supernatants at different intervals of time from infection (p.i.), measuring the hemagglutinating activity towards type 0 Rh+ human erythrocytes (HAU), according to standard procedures. […] Monkey kidney cells (VERO) were grown in RPMI, to which 5% of serum was added. The human herpes simplex virus type 1 (HSV-1), clinically isolated (TV1), was grown and titered in the Vero cells as described in Palamara, A. T., Perno, C. F., Ciriolo, M. R., Dini, L., Balestra, E., D'Agostini, C. et al. (1995). […] Antiviral Research 27, 237-253.
MDCK cells were infected for 1 hour with 3 hemagglutinating units (HAU)×10^5 cells. The cells were washed and then cultivated in the presence of different concentrations of GSH-C4 (range 0-7.5 mM) for 2 days. Production of the virus was assayed at 24 hours (panel A) and 48 hours (panel B) measuring the hemagglutinating activity on type 0 Rh+ human erythrocytes.

Data set [4] has as its system HSV-1. Put plainly: HSV-1 replication in Vero cells, plaque assay. The class given is cell-based, human herpes simplex virus type 1. The protocol: as §1
(§2) To obtain the viral infection, monolayers of Vero cells were infected with HSV-1 at a MOI (multiplicity of infection) of 0.03 PFU/cell. After incubation for 1 hour at 37° C. (adsorption period) the unadsorbed viruses were removed, the monolayers were washed and then incubated with culture medium containing 2% bovine fetal serum. GSH-C4 was added in identical doses to the ones indicated above immediately after the adsorption period and was maintained in the culture medium until completion of the experiments. Supernatants from infected cells were collected at different times after contact with the virus and tested for the ability to form plaques in Vero cells, using a standard titration method. Similar experiments were also conducted on HSV-1 TK-D305.
Vero cells were infected for 1 hour with HSV-1 at a MOI of 0.03 PFU/cell. After repeated washings, GSH-C4 was added at different concentrations (range 0-10 mM) to the cell cultures. Replication of the viruses was tested in the Vero cells 48 h after infection using the plaque technique.

Data set [5] addresses T1, glutathione peroxidase (E.C.1.11.1.9.) (Homo sapiens, UniProt P07203).
T1 construct: measured in hemolyzed human blood; from tissue; host or cells: hemolyzed human blood
T1 sequence (P07203 1-203): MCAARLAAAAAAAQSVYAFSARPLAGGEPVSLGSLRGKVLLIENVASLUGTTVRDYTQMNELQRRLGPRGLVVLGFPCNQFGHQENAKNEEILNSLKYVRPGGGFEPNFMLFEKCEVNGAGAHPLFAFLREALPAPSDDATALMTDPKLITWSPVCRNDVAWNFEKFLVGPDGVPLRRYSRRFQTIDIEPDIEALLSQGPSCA
Briefly: Glutathione peroxidase activity in hemolyzed human blood with GSH or GSH-C4 as substrate. The format is biochemical. The note with it: 2 mM substrate. Here is the method:
(§3) Enzymatic determinations of the activity of glutathione peroxidase (E.C.1.11.1.9.) and glutathione S-transferase (E.C.2.5.1.18.) in hemolyzed human blood in the presence of GSH and of its derivative GSH-C4 were carried out according to the methods of Beutler (Beutler, E., 1984, Red Cell Metabolism. A Manual of Biochemical Methods, 3rd edn. Grune & Stratton, New York). GSH and GSH-C4 were then oxidized by incubation at ambient temperature in the presence of 35% (v/v) H2O2 to respectively obtain GSSG and C4-GSSG-C4.
(§4) The enzymatic activities of glutathione peroxydase and glutathione S-transferase were measured in hemolyzed human blood in the presence of GSH-C4 or GSH 2 mM as substrates. […] Moreover, GSH and GSH-C4 were chemically oxidized in the corresponding disulphide forms (GSSG and C4-GSSG-C4).

In data set [6] the test system is glutathione S-transferase (E.C.2.5.1.18.). Briefly: Glutathione S-transferase activity in hemolyzed human blood with GSH or GSH-C4 as substrate. The note with it: 2 mM substrate. The class given is biochemical. Here is the method: as §3, §4
Data set [7] concerns HSV-1 TK−. Briefly: HSV-1 TK- (Δ305) replication in Vero cells, plaque forming units. The class given is cell-based, human herpes simplex virus type 1. Here is the method: as §2
Vero cells were infected for 1 h at 37° C. with the strain Δ305 and then kept in culture in the presence of different concentrations of GSH-C4. The production of viruses was measured 24, 48 and 72 h after infection by assay of the plaque forming units.

Data set [8] relates to uninfected Vero cells. Put plainly: Toxic effects in uninfected Vero cells. The format is cell-based, Monkey.

As for `CCCCCCCC(=O)NC(CCC(=O)NC(CS)C(=O)NCC(=O)O)C(=O)O` (stereo not drawn) [GSH-C8], the “toxic effect or change in cell morphology” value in data set [1] is reported as “marked toxic effects”.

The EC50 is the concentration at which the effect is half-maximal. Consider `N[C@@H](CCC(=O)N[C@@H](CS)C(=O)NCC(=O)O)C(=O)O` [GSH, γ-glutamylcysteinylglycine, reference compound], for which the “entry speed into erythrocytes” value in data set [2] is on record as 2.33 nmol/min/ml RBCs. In addition, in data set [3], the EC50 was 7.6 mM. In data set [4] (10 mM), the “complete inhibition of the virus” value is given as “does not induce complete inhibition of the virus” and the “reduction in virus replication” value is “around 2.5 log”.

As a reminder, the inhibition is the share of the control response that was lost under treatment. As for `CCCC(=O)N[C@@H](CCC(=O)N[C@@H](CS)C(=O)NCC(=O)O)C(=O)O` [GSH-C4, n-butanoyl γ-glutamylcysteinylglycine], the “toxicity for the cells, microscopic examination of the monolayers” value in data set [1] (7.5 mM, MDCK monolayers of the Sendai experiment) is listed as “without being toxic for the cells”. For the same compound, the “toxic effect or change in cell morphology” value in data set [1] is listed as “do not induce any toxic effect or change in cell morphology”. Moreover, the “glutathione peroxydase activity compared to that in the presence of GSH” value in data set [5] was found to be 1.8%. Also, in data set [6], the “glutathione S-transferase activity compared to that in the presence of GSH” value was found to be 3.5%. In addition, the “entry speed into erythrocytes” value in data set [2] was 4.33 nmol/min/ml RBCs. The “virus in the supernatant of treated cells” value in data set [3] (7.5 mM) is listed as “no viruses were found”. For the same compound, the results for the inhibition at 5000 µM in data set [3] (24 h p.i.) and in data set [3] (48 h p.i.) were 88% and 93%, respectively. The EC50 in data set [3] turned out to be 3.6 mM. For the same compound, the “virus particles in the cellular supernatant” value in data set [4] (10 mM, 48 h after infection) is “no virus particles were detected”. Also, in data set [4] (72 h after infection), the “inhibition of virus replication 72 h after infection” value is “same inhibition”. Moreover, in data set [4] (HSV-1 infected Vero cells), the “protection from cytopathic effects induced by the virus” value is “protects the Vero cells from the cytopathic effects induced by the virus”. Also, the inhibition at 7500 µM in data set [4] (Human alphaherpesvirus 1, Vero, 48 h, read-out: inhibition of viral replication compared to the control) is 60%. Moreover, the “activity against the strain TK− compared with the wild type strain” value in data set [7] was “less active”. Further, the “HSV-1 TK− titer” value is listed as 2.59 × 10^5 pfu/ml in data set [7] (5 mM, 24 h); 2.42 × 10^6 pfu/ml in data set [7] (5 mM, 48 h); 2.13 × 10^6 pfu/ml in data set [7] (5 mM, 72 h); 1.59 × 10^5 pfu/ml in data set [7] (7.5 mM, 24 h); 2.56 × 10^5 pfu/ml in data set [7] (7.5 mM, 48 h); 4.33 × 10^5 pfu/ml in data set [7] (7.5 mM, 72 h). For the same compound, the “HSV-1 TK− titer” value is 1.53 × 10^5 pfu/ml in data set [7] (10 mM, 24 h); 2.6 × 10^5 pfu/ml in data set [7] (10 mM, 48 h); 3.44 × 10^5 pfu/ml in data set [7] (10 mM, 72 h). In addition, the “inhibition of virus titer” value in data set [7] (7.5 mM, 72 h after infection) was “approximately 1 log”. The “toxic effects in uninfected Vero cells” value in data set [8] was “does not induce any toxic effects”.
